Measured values from PubChem BioAssay (NCI).
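Tested at 5 concentrations; 48 h exposure; 96-well plates; endpoints linearly interpolated, else capped at highest concentration. The concentration for 50% growth inhibition is given as GI50. TGI: total growth inhibition.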

Columns and labels:
Assay in all cases: NCI anticancer screen, dose series, 48 h
MCF7 breast = tested on: MCF7 breast
RXF 393 renal = tested on: RXF 393 renal
A549 NSCLC = tested on: A549 NSCLC
SK-MEL-5 melanoma = tested on: SK-MEL-5 melanoma
NCI-H23 lung = tested on: NCI-H23 lung
EKVX NSCLC = tested on: EKVX NSCLC
SF-539 CNS = tested on: SF-539 CNS
NCI-H460 lung = tested on: NCI-H460 lung
UO-31 renal = tested on: UO-31 renal
HS 578T breast = tested on: HS 578T breast
SF-268 CNS = tested on: SF-268 CNS
HOP-92 NSCLC = tested on: HOP-92 NSCLC
SK-OV-3 ovarian = tested on: SK-OV-3 ovarian
SF-295 CNS = tested on: SF-295 CNS
MDA-MB-435 = tested on: MDA-MB-435
HOP-62 NSCLC = tested on: HOP-62 NSCLC
OVCAR-5 ovarian = tested on: OVCAR-5 ovarian
ACHN renal = tested on: ACHN renal
DU-145 prostate = tested on: DU-145 prostate
CAKI-1 renal = tested on: CAKI-1 renal
HCT-116 colon = tested on: HCT-116 colon
BT-549 breast = tested on: BT-549 breast
T-47D breast = tested on: T-47D breast
UACC-257 melanoma = tested on: UACC-257 melanoma
SNB-19 CNS = tested on: SNB-19 CNS
U251 CNS = tested on: U251 CNS
M14 melanoma = tested on: M14 melanoma
SR leukemia = tested on: SR leukemia
OVCAR-8 ovarian = tested on: OVCAR-8 ovarian
SNB-75 CNS = tested on: SNB-75 CNS
UACC-62 melanoma = tested on: UACC-62 melanoma
HCT-15 colon = tested on: HCT-15 colon
HL-60(TB) leukemia = tested on: HL-60(TB) leukemia
NCI-H226 lung = tested on: NCI-H226 lung
COLO 205 colon = tested on: COLO 205 colon
RPMI-8226 leukemia = tested on: RPMI-8226 leukemia
A498 renal = tested on: A498 renal
SN12C renal = tested on: SN12C renal
HT29 colon = tested on: HT29 colon
LOX IMVI melanoma = tested on: LOX IMVI melanoma
NCI/ADR-RES ovarian = tested on: NCI/ADR-RES ovarian
KM12 colon = tested on: KM12 colon
786-0 renal = tested on: 786-0 renal
IGROV1 ovarian = tested on: IGROV1 ovarian
NCI-H522 lung = tested on: NCI-H522 lung
MDA-MB-231 breast = tested on: MDA-MB-231 breast
SK-MEL-28 melanoma = tested on: SK-MEL-28 melanoma
OVCAR-4 ovarian = tested on: OVCAR-4 ovarian
MOLT-4 leukemia = tested on: MOLT-4 leukemia
SW-620 colon = tested on: SW-620 colon
PC-3 prostate = tested on: PC-3 prostate
OVCAR-3 ovarian = tested on: OVCAR-3 ovarian
SK-MEL-2 melanoma = tested on: SK-MEL-2 melanoma
K-562 leukemia = tested on: K-562 leukemia

Compound: CCOC(=O)c1sc2ncn(Cc3cccc(Cl)c3)c(=O)c2c1C
- GI50 (MCF7 breast): 15.8 µM
- TGI (MCF7 breast): 29.2 µM
- GI50 (RXF 393 renal): 16.6 µM
- TGI (RXF 393 renal): 30.2 µM
- GI50 (A549 NSCLC): 16.4 µM
- TGI (A549 NSCLC): 30 µM
- GI50 (SK-MEL-5 melanoma): 14.9 µM
- TGI (SK-MEL-5 melanoma): 28.1 µM
- GI50 (NCI-H23 lung): 14.7 µM
- TGI (NCI-H23 lung): 27.9 µM
- GI50 (EKVX NSCLC): 17.3 µM
- TGI (EKVX NSCLC): 31 µM
- GI50 (SF-539 CNS): 19.3 µM
- TGI (SF-539 CNS): 33.4 µM
- GI50 (NCI-H460 lung): 18.7 µM
- TGI (NCI-H460 lung): 39.7 µM
- GI50 (UO-31 renal): 13.5 µM
- TGI (UO-31 renal): 26.4 µM
- GI50 (HS 578T breast): 17.5 µM
- TGI (HS 578T breast): 31.3 µM
- GI50 (SF-268 CNS): 15.1 µM
- TGI (SF-268 CNS): 28.4 µM
- GI50 (HOP-92 NSCLC): 12.2 µM
- TGI (HOP-92 NSCLC): 24.5 µM
- GI50 (SK-OV-3 ovarian): 17.4 µM
- TGI (SK-OV-3 ovarian): 31.2 µM
- GI50 (SF-295 CNS): 12 µM
- TGI (SF-295 CNS): 24.4 µM
- GI50 (MDA-MB-435): 13.9 µM
- TGI (MDA-MB-435): 26.9 µM
- GI50 (HOP-62 NSCLC): 12 µM
- TGI (HOP-62 NSCLC): 24.4 µM
- GI50 (OVCAR-5 ovarian): 17.4 µM
- TGI (OVCAR-5 ovarian): 31.2 µM
- GI50 (ACHN renal): 14.7 µM
- TGI (ACHN renal): 27.9 µM
- GI50 (DU-145 prostate): 17.7 µM
- TGI (DU-145 prostate): 31.5 µM
- GI50 (CAKI-1 renal): 6.19 µM
- TGI (CAKI-1 renal): 19.2 µM
- GI50 (HCT-116 colon): 12.3 µM
- TGI (HCT-116 colon): 24.8 µM
- GI50 (BT-549 breast): 17.2 µM
- TGI (BT-549 breast): 30.9 µM
- GI50 (T-47D breast): 15.6 µM
- TGI (T-47D breast): 29 µM
- GI50 (UACC-257 melanoma): 15.6 µM
- TGI (UACC-257 melanoma): 29.3 µM
- GI50 (SNB-19 CNS): 16.3 µM
- TGI (SNB-19 CNS): 29.8 µM
- GI50 (U251 CNS): 12.9 µM
- TGI (U251 CNS): 25.6 µM
- GI50 (M14 melanoma): 15.4 µM
- TGI (M14 melanoma): 28.7 µM
- GI50 (SR leukemia): 3.33 µM
- TGI (SR leukemia): 12.7 µM
- GI50 (OVCAR-8 ovarian): 15.1 µM
- TGI (OVCAR-8 ovarian): 28.4 µM
- GI50 (SNB-75 CNS): 16.4 µM
- TGI (SNB-75 CNS): 29.9 µM
- GI50 (UACC-62 melanoma): 13.4 µM
- TGI (UACC-62 melanoma): 26.8 µM
- GI50 (HCT-15 colon): 14.1 µM
- TGI (HCT-15 colon): 27 µM
- GI50 (HL-60(TB) leukemia): 18 µM
- TGI (HL-60(TB) leukemia): 31.9 µM
- GI50 (NCI-H226 lung): 12.9 µM
- TGI (NCI-H226 lung): 25.8 µM
- GI50 (COLO 205 colon): 20.7 µM
- TGI (COLO 205 colon): 36.6 µM
- GI50 (RPMI-8226 leukemia): 5.58 µM
- TGI (RPMI-8226 leukemia): 18.4 µM
- GI50 (A498 renal): 15.9 µM
- TGI (A498 renal): 30.7 µM
- GI50 (SN12C renal): 15.3 µM
- TGI (SN12C renal): 28.6 µM
- GI50 (HT29 colon): 19.3 µM
- TGI (HT29 colon): 33.4 µM
- GI50 (LOX IMVI melanoma): 14.6 µM
- TGI (LOX IMVI melanoma): 27.8 µM
- GI50 (NCI/ADR-RES ovarian): 7.78 µM
- TGI (NCI/ADR-RES ovarian): 20.7 µM
- GI50 (KM12 colon): 13.7 µM
- TGI (KM12 colon): 37.9 µM
- GI50 (786-0 renal): 13.1 µM
- TGI (786-0 renal): 25.7 µM
- GI50 (IGROV1 ovarian): 8.89 µM
- TGI (IGROV1 ovarian): 21.2 µM
- GI50 (NCI-H522 lung): 10.9 µM
- TGI (NCI-H522 lung): 23.3 µM
- GI50 (MDA-MB-231 breast): 13.6 µM
- TGI (MDA-MB-231 breast): 26.4 µM
- GI50 (SK-MEL-28 melanoma): 16.8 µM
- TGI (SK-MEL-28 melanoma): 30.4 µM
- GI50 (OVCAR-4 ovarian): 16.2 µM
- TGI (OVCAR-4 ovarian): 29.7 µM
- GI50 (MOLT-4 leukemia): 13.2 µM
- TGI (MOLT-4 leukemia): 25.9 µM
- GI50 (SW-620 colon): 18.1 µM
- TGI (SW-620 colon): 32 µM
- GI50 (PC-3 prostate): 13.1 µM
- TGI (PC-3 prostate): 25.8 µM
- GI50 (OVCAR-3 ovarian): 12.6 µM
- TGI (OVCAR-3 ovarian): 25.1 µM
- GI50 (SK-MEL-2 melanoma): 15.1 µM
- TGI (SK-MEL-2 melanoma): 29.1 µM
- GI50 (K-562 leukemia): 12.3 µM
- TGI (K-562 leukemia): 24.8 µM
